Laboratory results reported in US20230233569A1 (Revolution Medicines, Inc., priority 2020, published 2023).
Like-named read-outs stand apart in the source and are kept apart here.

How the values were obtained:
NCI-H358 (K-Ras G12C) = experiment: CellTiter-Glo cell viability assay; type: cell-based; conditions: Homo sapiens, NCI-H358, 120 h
In short: (§1)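 Cells already in plates received compound by direct dispensing. After incubation to day 5, plates sat at room temperature roughly 30 minutes, then ATP-based luminescence was measured and values derived from a four-parameter fit of DMSO-normalized data.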

[1] = system: 4EBP1 (Thr37/46) phosphorylation (mTORC1) in MDA-MB-468 cells; experiment: Cell based AlphaLISA assay, mTOR kinase cellular assay: inhibition of p-4E-BP1 (T37/46) in MDA-MB-468 cells; conditions: Homo sapiens, read-out: pIC50 for Inhibition of mTORC1 and mTORC2 Substarte Phosphorylation p-4E-BP1-(T37/46) (converted)
Procedure: (§2) Cell Based AlphaLISA Assays for Determining IC50 For Inhibition of P-Akt (S473), P-4E-BP1 (T37/46), and P-P70S6K (T389) in MDA-MB-468 Cells
(§3) mTOR Kinase Cellular Assay
(§4) To measure functional activity of mTORC1 and mTORC2 in cells the phosphorylation of 4EBP1 (Thr37/46) and P70S6K (Thr389), and AKT1/2/3 (Ser473) was monitored using AlphaLisa SureFire Ultra Kits (Perkin Elmer). MDA-MB-468 cells (ATCC® HTB-132) were cultured in 96-well tissue culture plates and treated with compounds in the disclosure at concentrations varying from 0.017-1,000 nM for two to four hours at 37° C. Incubations were terminated by removal of the assay buffer and addition of lysis buffer provided with the assay kit. Samples were processed according to the manufacturer's instructions. The Alpha signal from the respective phosphoproteins was measured in duplicate using a microplate reader (Envision, Perkin-Elmer or Spectramax M5, Molecular Devices). Inhibitor concentration response curves were analyzed using normalized IC50 regression curve fitting with control based normalization.

[2] = system: AKT1/2/3 (Ser473) phosphorylation (mTORC2) in MDA-MB-468 cells; experiment: Cell based AlphaLISA assay, mTOR kinase cellular assay: inhibition of p-Akt (S473) in MDA-MB-468 cells; conditions: Homo sapiens, read-out: pIC50 for Inhibition of mTORC1 and mTORC2 Substarte Phosphorylation p-AKT1/2/3-(S473) (converted)
Procedure: as §2, §3, §4

AsPC-1 (K-Ras G12D) = experiment: CellTiter-Glo cell viability assay; type: cell-based; conditions: Homo sapiens, ASPC1, 120 h
In short: as §1

KRAS G13C = KRAS G13C (Homo sapiens, UniProt P01116+P62937, G13C); experiment: Ras-Raf disruption / FRET / MOA assay (BRAF RBD); type: biochemical; conditions: KRAS G13C FRET data IC50, Ras-Raf disruption, with Cyclophilin A
In short: (§5)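 Compound-induced Ras–Cyclophilin A ternary complex disrupting BRAF RBD binding, read as IC50 from reduced TR-FRET ratio relative to DMSO. Final: Ras-GMPPNP 12.5 nM, BRAF RBD 50 nM, Cyclophilin A 25 μM, top compound 30 μM (3-fold, 10 points); 3 h at 25 °C, then 1.5 h with detection antibodies.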

NRAS G12C = NRAS G12C (Homo sapiens, UniProt P01111+P62937, G12C); experiment: Ras-Raf disruption / FRET / MOA assay (BRAF RBD); type: biochemical; conditions: NRAS G12C FRET data IC50, NRAS G12C
In short: as §5

KRAS G12S = KRAS G12S (Homo sapiens, UniProt P01116+P62937, G12S); experiment: Ras-Raf disruption / FRET / MOA assay (BRAF RBD); type: biochemical; conditions: KRAS G12S FRET data IC50, Ras-Raf disruption, with Cyclophilin A
In short: as §5

KRAS G13D = KRAS G13D (Homo sapiens, UniProt P01116+P62937, G13D); experiment: Ras-Raf disruption / FRET / MOA assay (BRAF RBD); type: biochemical; conditions: KRAS G13D FRET data IC50, Ras-Raf disruption, with Cyclophilin A
In short: as §5

KRAS WT = KRAS WT (Homo sapiens, UniProt P01116+P62937); experiment: Ras-Raf disruption / FRET / MOA assay (BRAF RBD); type: biochemical; conditions: KRAS WT FRET data IC50, Ras-Raf disruption, with Cyclophilin A
In short: as §5

KRAS G12V = KRAS G12V (Homo sapiens, UniProt P01116+P62937, G12V); experiment: Ras-Raf disruption / FRET / MOA assay (BRAF RBD); type: biochemical; conditions: KRAS G12V FRET data IC50, Ras-Raf disruption, with Cyclophilin A
In short: as §5

KRAS G12D = KRAS G12D (Homo sapiens, UniProt P01116+P62937, G12D); experiment: Ras-Raf disruption / FRET / MOA assay (BRAF RBD); type: biochemical; conditions: KRAS G12D FRET data IC50, Ras-Raf disruption, with Cyclophilin A
In short: as §5

KRAS G12C = KRAS G12C (Homo sapiens, UniProt P01116+P62937, G12C); experiment: Ras-Raf disruption / FRET / MOA assay (BRAF RBD); type: biochemical; conditions: KRAS G12C FRET data IC50, Ras-Raf disruption, with Cyclophilin A
In short: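 TR-FRET read-out after 1.5 h with anti-His Eu-W1024 (10 nM) and anti-GST APC (50 nM), following 3 h at 25 °C of compound (top 30 μM, 3-fold, 10 points) with 25 μM Cyclophilin A, 12.5 nM GMPPNP-loaded K-Ras G12C and 50 nM BRAF RBD; IC50 reported.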

[3] = read-out: H358 Cell Viability assay data IC50, K-Ras G12C, 5-day treatment

Sequence of KRAS G13C (P01116 1-169 isoform P01116-2 G13C limits assumed): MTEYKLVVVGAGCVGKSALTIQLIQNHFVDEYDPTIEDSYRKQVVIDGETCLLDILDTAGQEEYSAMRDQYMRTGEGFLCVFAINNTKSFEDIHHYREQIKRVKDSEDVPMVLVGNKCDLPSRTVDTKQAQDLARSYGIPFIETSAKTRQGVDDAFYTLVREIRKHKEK
Sequence of KRAS G13C (P62937 whole entry): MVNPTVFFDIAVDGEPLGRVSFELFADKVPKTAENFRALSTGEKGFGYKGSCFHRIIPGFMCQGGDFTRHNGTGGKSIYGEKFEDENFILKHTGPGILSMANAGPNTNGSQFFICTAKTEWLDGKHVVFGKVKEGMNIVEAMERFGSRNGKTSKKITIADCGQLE
Sequence of KRAS G12S (P01116 1-169 isoform P01116-2 G12S limits assumed): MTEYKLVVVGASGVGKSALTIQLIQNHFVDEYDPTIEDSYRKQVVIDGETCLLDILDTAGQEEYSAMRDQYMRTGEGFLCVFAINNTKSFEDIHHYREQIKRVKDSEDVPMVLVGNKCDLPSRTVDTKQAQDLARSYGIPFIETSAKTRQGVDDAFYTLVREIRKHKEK
Sequence of KRAS G12S (P62937 whole entry): as the sequence (P62937 whole entry) above
Sequence of KRAS WT (P01116 1-169 isoform P01116-2 limits assumed): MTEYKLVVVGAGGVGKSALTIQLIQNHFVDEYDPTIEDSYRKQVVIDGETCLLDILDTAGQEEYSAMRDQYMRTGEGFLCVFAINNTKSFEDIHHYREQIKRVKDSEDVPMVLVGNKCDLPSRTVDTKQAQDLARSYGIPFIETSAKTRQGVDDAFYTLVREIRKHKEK
Sequence of KRAS WT (P62937 whole entry): as the sequence (P62937 whole entry) above
Sequence of KRAS G12V (P01116 1-169 isoform P01116-2 G12V limits assumed): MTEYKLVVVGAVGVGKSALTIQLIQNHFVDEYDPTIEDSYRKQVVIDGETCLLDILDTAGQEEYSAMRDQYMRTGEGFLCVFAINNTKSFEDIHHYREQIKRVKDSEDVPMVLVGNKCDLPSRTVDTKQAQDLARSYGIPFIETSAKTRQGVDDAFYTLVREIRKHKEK
Sequence of KRAS G12V (P62937 whole entry): as the sequence (P62937 whole entry) above
Sequence of NRAS G12C (P01111 whole entry G12C): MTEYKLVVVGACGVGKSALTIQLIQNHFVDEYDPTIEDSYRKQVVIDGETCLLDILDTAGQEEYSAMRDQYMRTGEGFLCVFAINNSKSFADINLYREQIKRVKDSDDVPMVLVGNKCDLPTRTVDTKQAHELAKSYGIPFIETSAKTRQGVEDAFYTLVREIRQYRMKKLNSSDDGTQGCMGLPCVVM
Sequence of NRAS G12C (P62937 whole entry): as the sequence (P62937 whole entry) above
Sequence of KRAS G13D (P01116 1-169 isoform P01116-2 G13D limits assumed): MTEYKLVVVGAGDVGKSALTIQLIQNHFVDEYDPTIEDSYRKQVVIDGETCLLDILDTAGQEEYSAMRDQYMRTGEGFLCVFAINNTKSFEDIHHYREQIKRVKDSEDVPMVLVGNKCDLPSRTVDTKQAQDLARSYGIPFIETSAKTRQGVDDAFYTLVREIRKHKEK
Sequence of KRAS G13D (P62937 whole entry): as the sequence (P62937 whole entry) above
Sequence of KRAS G12C (P01116 1-169 isoform P01116-2 G12C limits assumed): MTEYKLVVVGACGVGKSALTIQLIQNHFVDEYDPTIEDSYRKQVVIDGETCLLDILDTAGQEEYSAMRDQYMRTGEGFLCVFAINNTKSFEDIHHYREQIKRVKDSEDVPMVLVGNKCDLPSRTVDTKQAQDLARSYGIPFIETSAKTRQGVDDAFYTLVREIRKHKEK
Sequence of KRAS G12C (P62937 whole entry): as the sequence (P62937 whole entry) above
Sequence of KRAS G12D (P01116 1-169 isoform P01116-2 G12D limits assumed): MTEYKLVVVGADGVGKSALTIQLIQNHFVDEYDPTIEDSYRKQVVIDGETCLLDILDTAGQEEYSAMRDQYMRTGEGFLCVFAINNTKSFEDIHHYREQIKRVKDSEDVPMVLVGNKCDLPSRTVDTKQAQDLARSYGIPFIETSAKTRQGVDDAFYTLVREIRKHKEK
Sequence of KRAS G12D (P62937 whole entry): as the sequence (P62937 whole entry) above

SMILES	IC50 [1]	IC50 [2]	also measured
CCn1c(-c2cccnc2COC)c2c3cc(ccc31)-c1cc(O)cc(c1)C[C@H](NC(=O)[C@H](C(C)C)N(C)C(=O)CCNC(=O)NCCCl)C(=O)N1CCC[C@H](N1)C(=O)OCC(C)(C)C2 [Example 25]	–	–	IC50 (NCI-H358 (K-Ras G12C); [3]): > 10000 nM
CO[C@H]1C[C@@H]2CC[C@@H](C)[C@@](O)(O2)C(=O)C(=O)N2CCCC[C@H]2C(=O)O[C@H]([C@H](C)C[C@@H]2CC[C@@H](OC(=O)NCc3cnc(N4CCN(C(=O)CCOCCN5CCN(c6ncc(C(=O)NCCCCn7nc(-c8ccc9oc(N)nc9c8)c8c(N)ncnc87)cn6)CC5)CC4)nc3)[C@H](OC)C2)CC(=O)[C@H](C)/C=C(\C)[C@@H](O)[C@@H](OC)C(=O)[C@H](C)C[C@H](C)/C=C/C=C/C=C/1C [Example 54]	≤ 3.16 nM	≤ 3.16 nM	–
CO[C@H]1C[C@@H]2CC[C@@H](C)[C@@](O)(O2)C(=O)C(=O)N2CCCC[C@H]2C(=O)O[C@H]([C@H](C)C[C@@H]2CC[C@@H](OC(=O)NCCOCCOCCOCCOCCOCCOCCOCCOCCC(=O)NCc3ccc(Cn4nc(-c5ccc6oc(N)nc6c5)c5c(N)ncnc54)cc3)[C@H](OC)C2)C[C@H](N=[N+]=[N-])[C@H](C)/C=C(\C)[C@@H](O)[C@@H](OC)C(=O)[C@H](C)C[C@H](C)/C=C/C=C/C=C/1C [Example 82]	≤ 3.16 nM	–	–
CO[C@H]1C[C@@H]2CC[C@@H](C)[C@@](O)(O2)C(=O)C(=O)N2CCCC[C@H]2C(=O)O[C@H]([C@H](C)C[C@@H]2CC[C@@H](OC(=O)NCc3cnc(N4CCN(C(=O)CN(C)CC(=O)NCCOCCOCCC(=O)N5CCc6cc(Cn7nc(-c8ccc9oc(N)nc9c8)c8c(N)ncnc87)ccc6C5)CC4)nc3)[C@H](OC)C2)C[C@@H](OC)[C@H](C)/C=C(\C)[C@@H](O)[C@@H](OC)C(=O)[C@H](C)C[C@H](C)/C=C/C=C/C=C/1C [Example 103]	> 1000 nM	> 1000 nM	–
CO[C@H]1C[C@@H]2CC[C@@H](C)[C@@](O)(O2)C(=O)C(=O)N2CCCC[C@H]2C(=O)O[C@H]([C@H](C)C[C@@H]2CC[C@@H](OC(=O)NCc3cnc(N4CCN(c5ncc(C(=O)NCCOCCOCCOCCOCCC(=O)N6CCc7cc(Cn8nc(-c9ccc%10oc(N)nc%10c9)c9c(N)ncnc98)ccc7C6)c(N)n5)CC4)nc3)[C@H](OC)C2)C[C@@H](OC)[C@H](C)/C=C(\C)[C@@H](O)[C@@H](OC)C(=O)[C@H](C)C[C@H](C)/C=C/C=C/C=C/1C [Example 106]	3.16 to 31.6 nM	> 1000 nM	–
CO[C@H]1C[C@@H]2CC[C@@H](C)[C@@](O)(O2)C(=O)C(=O)N2CCCC[C@H]2C(=O)O[C@H]([C@H](C)C[C@@H]2CC[C@@H](OC(=O)NCc3cnc(N4CCN(c5ncc(C(=O)N(C)CCOCCOCCOCCOCCC(=O)N6CCc7cc(Cn8nc(-c9ccc%10oc(N)nc%10c9)c9c(N)ncnc98)ccc7C6)c(N)n5)CC4)nc3)[C@H](OC)C2)C[C@@H](OC)[C@H](C)/C=C(\C)[C@@H](O)[C@@H](OC)C(=O)[C@H](C)C[C@H](C)/C=C/C=C/C=C/1C [Example 107]	> 1000 nM	> 1000 nM	–
CO[C@H]1C[C@@H]2CC[C@@H](C)[C@@](O)(O2)C(=O)C(=O)N2CCCC[C@H]2C(=O)O[C@H]([C@H](C)C[C@@H]2CC[C@@H](OC(=O)NCc3cnc(N4CCN(CCOCCN5CCN(c6ncc(C(=O)N7CCc8cc(Cn9nc(-c%10ccc%11oc(N)nc%11c%10)c%10c(N)ncnc%109)ccc8C7)cn6)CC5)CC4)nc3)[C@H](OC)C2)C[C@@H](OC)[C@H](C)/C=C(\C)[C@@H](O)[C@@H](OC)C(=O)[C@H](C)C[C@H](C)/C=C/C=C/C=C/1C [Example 125]	≤ 3.16 nM	–	–
CO[C@H]1C[C@@H]2CC[C@@H](C)[C@@](O)(O2)C(=O)C(=O)N2CCCC[C@H]2C(=O)O[C@H]([C@H](C)C[C@@H]2CC[C@@H](OC(=O)N3CCc4nc(N5CCN(CCOCCN6CCN(c7ncc(C(=O)N8CCc9cc(Cn%10nc(-c%11ccc%12oc(N)nc%12c%11)c%11c(N)ncnc%11%10)ccc9C8)cn7)CC6)CC5)ncc4C3)[C@H](OC)C2)C[C@@H](OC)[C@H](C)/C=C(\C)[C@@H](O)[C@@H](OC)C(=O)[C@H](C)C[C@H](C)/C=C/C=C/C=C/1C [Example 126]	3.16 to 31.6 nM	–	–
CO[C@H]1C[C@@H]2CC[C@@H](C)[C@@](O)(O2)C(=O)C(=O)N2CCCC[C@H]2C(=O)O[C@H]([C@H](C)C[C@@H]2CC[C@@H](OC(=O)NCc3cnc(N4CCN(C(=O)CCOCCN5CCN(c6ncc(C(=O)N7CCc8cc(Cn9nc(-c%10cnc%11[nH]ccc%11c%10)c%10c(N)ncnc%109)ccc8C7)cn6)CC5)[C@@H](C(=O)O)C4)nc3)[C@H](OC)C2)CC(=O)[C@H](C)/C=C(\C)[C@@H](O)[C@@H](OC)C(=O)[C@H](C)C[C@H](C)/C=C/C=C/C=C/1C [Example 132]	≤ 3.16 nM	3.16 to 31.6 nM	–
CO[C@H]1C[C@@H]2CC[C@@H](C)[C@@](O)(O2)C(=O)C(=O)N2CCCC[C@H]2C(=O)O[C@H]([C@H](C)C[C@@H]2CC[C@@H](O)[C@H](OC)C2)CC(=O)[C@H](C)/C=C(\C)[C@@H](OC(=O)NCc2cnc(N3CCN(C(=O)CCOCCN4CCN(c5ncc(C(=O)N6CCc7cc(Cn8nc(-c9ccc%10oc(N)nc%10c9)c9c(N)ncnc98)ccc7C6)cn5)CC4)CC3)nc2)[C@@H](OC)C(=O)[C@H](C)C[C@H](C)/C=C/C=C/C=C/1C [Example 133]	≤ 3.16 nM	–	–
CCn1c(-c2cccnc2[C@H](C)OC)c2c3cc(ccc31)-c1cc(O)cc(c1)C[C@H](NC(=O)[C@H](C(C)C)N(C)C(=O)CN(C)C(=O)[C@H]1CN1CCOC)C(=O)N1CCC[C@H](N1)C(=O)OCC(C)(C)C2 (stereo partly drawn) [Example 159]	–	–	IC50 (NCI-H358 (K-Ras G12C); [3]): < 10 nM; IC50 (AsPC-1 (K-Ras G12D); read-out: AsPC-1 Cell Viability assay data IC50, K-Ras G12D, 5-day treatment): 100 to 1000 nM; IC50 (KRAS G13C): 10 to 100 nM; IC50 (NRAS G12C): < 10 nM; IC50 (KRAS G12S): 10 to 100 nM; IC50 (KRAS G13D): 100 to 1000 nM; IC50 (KRAS WT): 10 to 100 nM; IC50 (KRAS G12V): 10 to 100 nM; IC50 (KRAS G12D): 100 to 1000 nM; IC50 (KRAS G12C): 10 to 100 nM
CCn1c(-c2cccnc2[C@H](C)OC)c2c3cc(ccc31)-c1cc(O)cc(c1)C[C@H](NC(=O)[C@H](C(C)C)N(C)C(=O)[C@@]1(C)CCCN1C(=O)[C@@H]1CN1)C(=O)N1CCC[C@H](N1)C(=O)OCC(C)(C)C2 [Example 241]	–	–	IC50 (NCI-H358 (K-Ras G12C); K-Ras G12C, 5-day treatment, read-out: H358 Cell Viability assay data IC50): < 10 nM; IC50 (AsPC-1 (K-Ras G12D); K-Ras G12D, 5-day treatment, read-out: AsPC-1 Cell Viability assay data IC50): 100 to 1000 nM
